# Data taken from US20210368850A1, “VAPORIZABLE FORMULATION” (NICOVENTURES TRADING LIMITED, priority 2018, published 2021).
# System: volunteers
# Assay: Example 1 observational testing: perceived cooling intensity, Vype eTank Pro e-cigarette
# Format: in vivo
# Conditions: 0.18% in e-liquid, 10 volunteers; 0 = no cooling perceivable, 10 = very strong cooling sensation
# Method: 10 volunteers were asked to use each cooling agent sample in a Vype eTank Pro (an electronic cigarette device). All cooling agents were used at a concentration of 0.18% except for menthol which in one sample was used at the current commercial concentration of 1.235%. Each of the menthol samples were tested for comparative purposes.
# Each volunteer was asked to assess the cooling intensity on an objective basis (i.e. not considering personal preference) and a subjective basis. The objective assessment required the volunteer to rate the overall perceived cooling intensity from 0 to 10, where 0 was no cooling perceivable and 10 was very strong cooling sensation, and to place the cooling sensation, e.g. in the mouth, throat etc. The subjective assessment required the cooling intensity to be ranked as (1) much too low, (2) slightly too low, (3) just right, (4) slightly too high or (5) much too high.
row,Structure (SMILES),Average Cooling Intensity (0-10)
1,"CC1CCC(C(C)C)C(O)C1 (centres unmarked) [Menthol, menthol, reference compound]",2.1
2,"CCOC(=O)CNC(=O)[C@@H]1C[C@H](C)CC[C@H]1C(C)C [WS-5, ethyl-2-[[(1R,2S,5R)-5-methyl-2-propan-2-ylcyclohexanecarbonyl]amino] acetate]",2.5454
3,"CNC(=O)C(C)(C(C)C)C(C)C [WS-23, N,2,3-trimethyl-2-propan-2-ylbutanamide]",2.1818

# Same assay, conditions: 1.235% (current commercial concentration) in e-liquid, 10 volunteers; scale 0-10
row,Structure (SMILES),Average Cooling Intensity (0-10)
1,"CC1CCC(C(C)C)C(O)C1 (centres unmarked) [Menthol, menthol, reference compound]",8

# System: not given
# Assay: not given
# Conditions: 25° C.; cited from earlier work
row,Structure (SMILES),Vapor pressure
1,"CC1CCC(C(C)C)C(O)C1 (centres unmarked) [Menthol, menthol, reference compound]",approximately 1.02 Pa

# Same assay, conditions: approximate, from the literature; cited from earlier work
row,Structure (SMILES),Vapor pressure (mmHg) @ 25° C. [mmHg]
1,"CC(C)[C@@H]1CC[C@@H](C)C[C@H]1OC(=O)CCC(=O)O [Monomenthyl succinate, (−)-menthyl succinate]",1.23E−6
2,COc1ccc(NC(=O)[C@@H]2C[C@H](C)CC[C@H]2C(C)C)cc1 [WS-12],3.25E−8

# System: not listed separately
# Assay: Thermogravimetric analysis (TGA) of mass loss on heating
# Format: physicochemical
# Conditions: TGA in air, rep 1; 30° C. to 600° C. at 5° C./min
# Method: Prior to panel testing, the cooling agents were subjected to thermogravimetric analysis (TGA) to understand their behavior as they are heated. As is known in the art, TGA is an analytical method which can monitor the mass loss of a sample as it is heated to temperatures of up to 1000° C. and higher.
# All measurements were carried out on a Perkin Elmer STA6000 TGA thermogravimetric analyzer. For solid samples, a spatula was used to transfer 5-20 mg of material into the crucible of the analyzer. Oils were introduced to the instrument by transferring 5-20 mg using a Pasteur pipette onto a small portion of Cambridge filter pad which was placed in the crucible. All samples were heated from 30° C. to 600° C. at a constant rate of 5° C./min. This was carried out for each compound twice in air and twice in nitrogen. For a small number of samples, the run was stopped at 500-600° C. when full mass loss had been observed. For comparative purposes, menthol was also analyzed.
# The onset temperature of mass loss for each compound was determined by visual inspection of the TGA traces on the computer software and the results are summarized in Table 2.
row,Tpeak of mass loss (° C.) Air (rep 1) [°C],Structure (SMILES)
1,53,"CC1CCC(C(C)C)C(O)C1 (centres unmarked) [Menthol, menthol, reference compound]"
2,144,"CC(C)[C@@H]1CC[C@@H](C)C[C@H]1OC(=O)CCC(=O)O [Monomenthyl succinate, (−)-menthyl succinate]"
3,149,"CCOC(=O)CNC(=O)[C@@H]1C[C@H](C)CC[C@H]1C(C)C [WS-5, ethyl-2-[[(1R,2S,5R)-5-methyl-2-propan-2-ylcyclohexanecarbonyl]amino] acetate]"
4,202,COc1ccc(NC(=O)[C@@H]2C[C@H](C)CC[C@H]2C(C)C)cc1 [WS-12]
5,88,"CNC(=O)C(C)(C(C)C)C(C)C [WS-23, N,2,3-trimethyl-2-propan-2-ylbutanamide]"

# Same assay, conditions: TGA in air, rep 2; 30° C. to 600° C. at 5° C./min
row,Tpeak of mass loss (° C.) Air (rep 2) [°C],Structure (SMILES)
1,55,"CC1CCC(C(C)C)C(O)C1 (centres unmarked) [Menthol, menthol, reference compound]"
2,148,"CC(C)[C@@H]1CC[C@@H](C)C[C@H]1OC(=O)CCC(=O)O [Monomenthyl succinate, (−)-menthyl succinate]"
3,151,"CCOC(=O)CNC(=O)[C@@H]1C[C@H](C)CC[C@H]1C(C)C [WS-5, ethyl-2-[[(1R,2S,5R)-5-methyl-2-propan-2-ylcyclohexanecarbonyl]amino] acetate]"
4,203,COc1ccc(NC(=O)[C@@H]2C[C@H](C)CC[C@H]2C(C)C)cc1 [WS-12]
5,88,"CNC(=O)C(C)(C(C)C)C(C)C [WS-23, N,2,3-trimethyl-2-propan-2-ylbutanamide]"

# Same assay, conditions: TGA in nitrogen, rep 1; 30° C. to 600° C. at 5° C./min
row,Tpeak of mass loss (° C.) Nitrogen (rep 1) [°C],Structure (SMILES)
1,52,"CC1CCC(C(C)C)C(O)C1 (centres unmarked) [Menthol, menthol, reference compound]"
2,151,"CC(C)[C@@H]1CC[C@@H](C)C[C@H]1OC(=O)CCC(=O)O [Monomenthyl succinate, (−)-menthyl succinate]"
3,154,"CCOC(=O)CNC(=O)[C@@H]1C[C@H](C)CC[C@H]1C(C)C [WS-5, ethyl-2-[[(1R,2S,5R)-5-methyl-2-propan-2-ylcyclohexanecarbonyl]amino] acetate]"
4,199,COc1ccc(NC(=O)[C@@H]2C[C@H](C)CC[C@H]2C(C)C)cc1 [WS-12]
5,90,"CNC(=O)C(C)(C(C)C)C(C)C [WS-23, N,2,3-trimethyl-2-propan-2-ylbutanamide]"

# Same assay, conditions: TGA in nitrogen, rep 2; 30° C. to 600° C. at 5° C./min
row,Tpeak of mass loss (° C.) Nitrogen (rep 2) [°C],Structure (SMILES)
1,55,"CC1CCC(C(C)C)C(O)C1 (centres unmarked) [Menthol, menthol, reference compound]"
2,151,"CC(C)[C@@H]1CC[C@@H](C)C[C@H]1OC(=O)CCC(=O)O [Monomenthyl succinate, (−)-menthyl succinate]"
3,158,"CCOC(=O)CNC(=O)[C@@H]1C[C@H](C)CC[C@H]1C(C)C [WS-5, ethyl-2-[[(1R,2S,5R)-5-methyl-2-propan-2-ylcyclohexanecarbonyl]amino] acetate]"
4,197,COc1ccc(NC(=O)[C@@H]2C[C@H](C)CC[C@H]2C(C)C)cc1 [WS-12]
5,86,"CNC(=O)C(C)(C(C)C)C(C)C [WS-23, N,2,3-trimethyl-2-propan-2-ylbutanamide]"

# System: not given
# Assay: not given
# Conditions: @ 2.00 mmHg; from the literature; cited from earlier work
row,Structure (SMILES),Boiling point (° C.)
1,"CCOC(=O)CNC(=O)[C@@H]1C[C@H](C)CC[C@H]1C(C)C [WS-5, ethyl-2-[[(1R,2S,5R)-5-methyl-2-propan-2-ylcyclohexanecarbonyl]amino] acetate]",151.00 (@ 2.00 mmHg) ° C.

# Same assay, conditions: @ 760 mmHg (atmospheric pressure); approximate, from the literature; cited from earlier work
row,Structure (SMILES),Boiling point (° C.) @ 760 mmHg unless stated
1,"CC1CCC(C(C)C)C(O)C1 (centres unmarked) [Menthol, menthol, reference compound]",212 °C
2,"CC(C)[C@@H]1CC[C@@H](C)C[C@H]1OC(=O)CCC(=O)O [Monomenthyl succinate, (−)-menthyl succinate]",374.35 °C
3,COc1ccc(NC(=O)[C@@H]2C[C@H](C)CC[C@H]2C(C)C)cc1 [WS-12],447.8 ± 28.0 °C
4,"CNC(=O)C(C)(C(C)C)C(C)C [WS-23, N,2,3-trimethyl-2-propan-2-ylbutanamide]",233.00-234.00 °C
